Data taken from patent publication US20240270762A1, “PENICILLIN-BINDING PROTEIN INHIBITORS” (priority 2021, published 2024).
≈ marks a conversion by molar mass, not a printed value. Where two headings read alike, the source gives them in different places.

Assays:
[1] = molecular target: T1, PBP3 from Acinetobacter baumannii (ATCC 19606) (Acinetobacter baumannii, UniProt A0ABX6CK25); experiment: Bocillin-FL fluorescence polarization competition binding, A. baumannii PBP3; settings: fluorescence polarization competition binding assay using Bocillin-FL; read-out: A. baumannii PBP3 Potency
T1 sequence (A0ABX6CK25 64-610): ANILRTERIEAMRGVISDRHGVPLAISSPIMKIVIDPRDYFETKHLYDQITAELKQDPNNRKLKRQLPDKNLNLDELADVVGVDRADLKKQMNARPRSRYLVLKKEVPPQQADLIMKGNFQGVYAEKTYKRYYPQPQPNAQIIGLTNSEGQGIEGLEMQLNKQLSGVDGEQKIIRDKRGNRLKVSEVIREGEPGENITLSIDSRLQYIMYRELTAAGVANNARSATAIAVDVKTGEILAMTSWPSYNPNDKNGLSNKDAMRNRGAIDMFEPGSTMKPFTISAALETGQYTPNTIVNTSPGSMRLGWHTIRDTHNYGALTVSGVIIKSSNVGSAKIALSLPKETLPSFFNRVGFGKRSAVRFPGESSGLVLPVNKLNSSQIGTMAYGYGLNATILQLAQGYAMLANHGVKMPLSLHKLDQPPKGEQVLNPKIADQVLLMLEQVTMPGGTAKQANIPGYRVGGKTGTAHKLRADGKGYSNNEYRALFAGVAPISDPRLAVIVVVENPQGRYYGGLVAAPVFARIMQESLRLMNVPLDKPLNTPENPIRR
Procedure, shortened: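 Purified PBP was preincubated with inhibitor (E. coli PBP3 1.5 μM, 30 min; P. aeruginosa PBP3 0.75 μM, A. baumannii PBP3 0.2 μM and PBP1a 1 μM, 15 min), then Bocillin-FL (0.1 μM; 0.05 μM for PBP1a) added and FP read up to 60 min. EC50 = 50% loss of bound probe.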

P. aeruginosa CDC-0095 = experiment: microbe, parasite or virus in culture; type: cell-based; settings: Pseudomonas aeruginosa, CDC0095, read-out: Minimum inhibitory concentration, P. aeruginosa CDC-0095
A. baumannii 1258916 = experiment: microbe, parasite or virus in culture; type: cell-based, Acinetobacter baumannii; settings: Acinetobacter baumannii, 1258916, read-out: MIC, A. baumannii 1258916
A. baumannii CDC-0036 = experiment: microbe, parasite or virus in culture; type: cell-based; settings: Acinetobacter baumannii, CDC0036, read-out: MIC, A. baumannii CDC-0036
N. gonorrhoeae FA1090 = experiment: Liquid broth MIC in Fastidious broth; settings: Neisseria gonorrhoeae
N. gonorrhoeae WHO G = experiment: Liquid broth MIC in Fastidious broth; settings: Neisseria gonorrhoeae
N. gonorrhoeae WHO M = experiment: Liquid broth MIC in Fastidious broth; settings: Neisseria gonorrhoeae
N. gonorrhoeae WHO K = experiment: Liquid broth MIC in Fastidious broth; settings: Neisseria gonorrhoeae
N. gonorrhoeae WHO X = experiment: Liquid broth MIC in Fastidious broth; settings: Neisseria gonorrhoeae
N. gonorrhoeae WHO Z = experiment: Liquid broth MIC in Fastidious broth; settings: Neisseria gonorrhoeae
N. gonorrhoeae WHO Q = experiment: Liquid broth MIC in Fastidious broth; settings: Neisseria gonorrhoeae
[2] = FA1090, read-out: Minimum Inhibitory Concentration, FA 1090
[3] = read-out: Minimum Inhibitory Concentration, WHO G
[4] = read-out: Minimum Inhibitory Concentration, WHO M
[5] = read-out: Minimum Inhibitory Concentration, WHO K
[6] = read-out: Minimum Inhibitory Concentration, WHO X
[7] = read-out: Minimum Inhibitory Concentration, WHO Z
[8] = read-out: Minimum Inhibitory Concentration, WHO Q
[9] = FA1090, read-out: Minimum Inhibitory Concentration (MIC), N. gonorrhoeae FA 1090
[10] = read-out: Minimum Inhibitory Concentration (MIC), N. gonorrhoeae WHO G
[11] = read-out: Minimum Inhibitory Concentration (MIC), N. gonorrhoeae WHO M
[12] = read-out: Minimum Inhibitory Concentration (MIC), N. gonorrhoeae WHO K
[13] = read-out: Minimum Inhibitory Concentration (MIC), N. gonorrhoeae WHO X
[14] = read-out: Minimum Inhibitory Concentration (MIC), N. gonorrhoeae WHO Z
[15] = read-out: Minimum Inhibitory Concentration (MIC), N. gonorrhoeae WHO Q

In the case of `O=C(NCCCS(=O)(=O)N1CCN(C(=O)NC(C(=O)N[C@H]2Cc3ccc(F)c(C(=O)O)c3OB2O)c2cc(F)c(O)c(O)c2Cl)C1=O)c1ccccc1` (stereo partly drawn) [Example 268, (3R)-3-(2-(3-((3-benzamidopropyl)sulfonyl)-2-oxoimidazolidine-1-carboxamido)-2-(2-chloro-5-fluoro-3,4-dihydroxyphenyl)acetamido)-7-fluoro-2-hydroxy-3,4-dihydro-2H-benzo[e][1,2]oxaborinine-8-carboxylic acid], the IC50 [1] is reported as < 10 µM, the MIC (P. aeruginosa CDC-0095) is reported as 32 to 64 µg/mL (≈ 41 to 82.1 µM) and the MIC (A. baumannii 1258916) is reported as < 1 µg/mL. The MIC (A. baumannii CDC-0036) was 2 to 4 µg/mL (≈ 2.56 to 5.13 µM), the MIC (N. gonorrhoeae FA1090; [2]) was 4 to 8 µg/mL (≈ 5.13 to 10.3 µM) and the MIC (N. gonorrhoeae WHO G; [3]) was 16 to 32 µg/mL (≈ 20.5 to 41 µM). The MIC (N. gonorrhoeae WHO M; [4]) was 16 to 32 µg/mL (≈ 20.5 to 41 µM), the MIC (N. gonorrhoeae WHO K; [5]) was > 64 µg/mL and the MIC (N. gonorrhoeae WHO X; [6]) was > 64 µg/mL. The MIC (N. gonorrhoeae WHO Z; [7]) was 16 to 32 µg/mL (≈ 20.5 to 41 µM) and the MIC (N. gonorrhoeae WHO Q; [8]) was 16 to 32 µg/mL (≈ 20.5 to 41 µM).
For `O=C(NCCN1CCN(C(=O)N[C@@H](C(=O)N[C@H]2Cc3ccc(F)c(C(=O)O)c3OB2O)c2cc(F)c(O)c(O)c2Cl)C(=O)C1=O)Nc1ccncc1` [Example 221, (R)-3-((R)-2-(2-chloro-5-fluoro-3,4-dihydroxyphenyl)-2-(2,3-dioxo-4-(2-(3-(pyridin-4-yl)ureido)ethyl)piperazine-1-carboxamido)acetamido)-7-fluoro-2-hydroxy-3,4-dihydro-2H-benzo[e][1,2]oxaborinine-8-carboxylic acid], the IC50 [1] was < 10 µM, the MIC (P. aeruginosa CDC-0095) was 8 to 16 µg/mL (≈ 10.7 to 21.5 µM) and the MIC (A. baumannii 1258916) was 2 to 4 µg/mL (≈ 2.68 to 5.36 µM). The MIC (A. baumannii CDC-0036) was 2 to 4 µg/mL (≈ 2.68 to 5.36 µM), the MIC (N. gonorrhoeae FA1090; [9]) was 1 to 2 µg/mL (≈ 1.34 to 2.68 µM) and the MIC (N. gonorrhoeae WHO G; [10]) was 4 to 8 µg/mL (≈ 5.36 to 10.7 µM). For the same molecule, the MIC (N. gonorrhoeae WHO M; [11]) was 4 to 8 µg/mL (≈ 5.36 to 10.7 µM), the MIC (N. gonorrhoeae WHO K; [12]) was > 64 µg/mL and the MIC (N. gonorrhoeae WHO X; [13]) was > 64 µg/mL. The MIC (N. gonorrhoeae WHO Z; [14]) was > 64 µg/mL and the MIC (N. gonorrhoeae WHO Q; [15]) was > 64 µg/mL.
`O=C(CN1CCN(C(=O)NC(C(=O)N[C@H]2Cc3ccc(F)c(C(=O)O)c3OB2O)c2cc(F)c(O)c(O)c2Cl)C(=O)C1=O)NCc1cccc(O)c1` (stereo partly drawn) [Example 237, (3R)-3-(2-(2-chloro-5-fluoro-3,4-dihydroxyphenyl)-2-(4-(2-((3-hydroxybenzyl)amino)-2-oxoethyl)-2,3-dioxopiperazine-1-carboxamido)acetamido)-7-fluoro-2-hydroxy-3,4-dihydro-2H-benzo[e][1,2]oxaborinine-8-carboxylic acid] was tested, and the IC50 [1] was < 10 µM, the MIC (P. aeruginosa CDC-0095) was 2 to 4 µg/mL (≈ 2.68 to 5.36 µM) and the MIC (A. baumannii 1258916) was 2 to 4 µg/mL (≈ 2.68 to 5.36 µM). The MIC (A. baumannii CDC-0036) was 8 to 16 µg/mL (≈ 10.7 to 21.5 µM), the MIC (N. gonorrhoeae FA1090; [9]) was 1 to 2 µg/mL (≈ 1.34 to 2.68 µM) and the MIC (N. gonorrhoeae WHO G; [10]) was 4 to 8 µg/mL (≈ 5.36 to 10.7 µM). The MIC (N. gonorrhoeae WHO M; [11]) was 4 to 8 µg/mL (≈ 5.36 to 10.7 µM), the MIC (N. gonorrhoeae WHO K; [12]) was > 64 µg/mL and the MIC (N. gonorrhoeae WHO X; [13]) was > 64 µg/mL. For the same molecule, the MIC (N. gonorrhoeae WHO Z; [14]) was 16 to 32 µg/mL (≈ 21.5 to 42.9 µM) and the MIC (N. gonorrhoeae WHO Q; [15]) was > 64 µg/mL.
With `O=C(NCCCN1CCN(C(=O)N[C@@H](C(=O)N[C@H]2Cc3ccc(F)c(C(=O)O)c3OB2O)c2cc(F)c(O)c(O)c2Cl)C1=O)Nc1cccc(O)c1` [Example 258, (R)-3-((R)-2-(2-chloro-5-fluoro-3,4-dihydroxyphenyl)-2-(3-(3-(3-(3-hydroxyphenyl)ureido)propyl)-2-oxoimidazolidine-1-carboxamido)acetamido)-7-fluoro-2-hydroxy-3,4-dihydro-2H-benzo[e][1,2]oxaborinine-8-carboxylic acid] the IC50 [1] was < 10 µM, the MIC (P. aeruginosa CDC-0095) was < 1 µg/mL and the MIC (A. baumannii 1258916) was < 1 µg/mL. For the same molecule, the MIC (A. baumannii CDC-0036) was < 1 µg/mL, the MIC (N. gonorrhoeae FA1090; [2]) was 1 to 2 µg/mL (≈ 1.34 to 2.68 µM) and the MIC (N. gonorrhoeae WHO G; [3]) was 4 to 8 µg/mL (≈ 5.36 to 10.7 µM). The MIC (N. gonorrhoeae WHO M; [4]) was 4 to 8 µg/mL (≈ 5.36 to 10.7 µM), the MIC (N. gonorrhoeae WHO K; [5]) was > 64 µg/mL and the MIC (N. gonorrhoeae WHO X; [6]) was > 64 µg/mL. The MIC (N. gonorrhoeae WHO Z; [7]) was 4 to 8 µg/mL (≈ 5.36 to 10.7 µM) and the MIC (N. gonorrhoeae WHO Q; [8]) was 16 to 32 µg/mL (≈ 21.4 to 42.8 µM).
For `O=C(O)c1c(F)ccc2c1OB(O)[C@@H](NC(=O)[C@H](NC(=O)N1CCN(CCNC(=O)[C@@H]3CCCN3)C(=O)C1=O)c1cc(F)c(O)c(O)c1Cl)C2` [Example 229, (R)-3-((R)-2-(2-chloro-5-fluoro-3,4-dihydroxyphenyl)-2-(2,3-dioxo-4-(2-((S)-pyrrolidine-2-carboxamido)ethyl)piperazine-1-carboxamido)acetamido)-7-fluoro-2-hydroxy-3,4-dihydro-2H-benzo[e][1,2]oxaborinine-8-carboxylic acid], the IC50 [1] was < 10 µM, the MIC (P. aeruginosa CDC-0095) was < 1 µg/mL and the MIC (A. baumannii 1258916) was 2 to 4 µg/mL (≈ 2.77 to 5.53 µM). The MIC (A. baumannii CDC-0036) was 2 to 4 µg/mL (≈ 2.77 to 5.53 µM), the MIC (N. gonorrhoeae FA1090; [9]) was 4 to 8 µg/mL (≈ 5.53 to 11.1 µM) and the MIC (N. gonorrhoeae WHO G; [10]) was 4 to 8 µg/mL (≈ 5.53 to 11.1 µM). For the same molecule, the MIC (N. gonorrhoeae WHO M; [11]) was 4 to 8 µg/mL (≈ 5.53 to 11.1 µM), the MIC (N. gonorrhoeae WHO K; [12]) was 16 to 32 µg/mL (≈ 22.1 to 44.3 µM) and the MIC (N. gonorrhoeae WHO X; [13]) was > 64 µg/mL. It also gave an MIC (N. gonorrhoeae WHO Z; [14]) of 16 to 32 µg/mL (≈ 22.1 to 44.3 µM) and an MIC (N. gonorrhoeae WHO Q; [15]) of 16 to 32 µg/mL (≈ 22.1 to 44.3 µM).
